# Key:
# METTL1 = METTL1 (Homo sapiens, UniProt Q9UBP6); assay: Thermal shift assay; type: binding
# Procedure: (§1) METTL1 mediates the formation of N7-methylguanine in a subset of RNA species, such as tRNAs, mRNAs, and microRNAs, whereas METTL16 is able to N6-methylate a subset of mRNAs and U6 small nuclear RNAs.[23],[24] The co-product of methyl transfer catalysis, S-adenosyl-L-homocysteine (SAH), was used as a positive control in the thermal shift assay. […] Compound 54 at 200 μM was able to shift the melting curve of METTL3/METTL14 by 1.8 °C compared to the DMSO control (Figure S4).
# (§2) The protein sample was buffered in 25 mM HEPES (pH 7.4) and 150 mM NaCl and assayed in a 96-well plate at a final concentration of 2 μM in 20 μL volume. The SYPRO Orange dye was added as a fluorescence probe at a dilution of 1:1000. The compound 54 concentrations tested were 10, 50, 100, and 200 μM, while the SAH concentrations tested were 100, 500, 1000, and 2000 μM. The temperature was raised with a step of 0.5 °C starting from 20 to 80 °C, and fluorescence readings were taken at each interval. The reported values (ΔTm) are calculated as the difference between the transition midpoints of an individual sample and the average of the reference wells (containing the protein and the DMSO only) in the same plate. The DMSO concentration was kept at 1% (v/v).
# METTL16 = biological target: T1, METTL16 (Homo sapiens, UniProt Q86W50); assay: Thermal shift assay; type: binding
# T1 sequence (Q86W50 1-562): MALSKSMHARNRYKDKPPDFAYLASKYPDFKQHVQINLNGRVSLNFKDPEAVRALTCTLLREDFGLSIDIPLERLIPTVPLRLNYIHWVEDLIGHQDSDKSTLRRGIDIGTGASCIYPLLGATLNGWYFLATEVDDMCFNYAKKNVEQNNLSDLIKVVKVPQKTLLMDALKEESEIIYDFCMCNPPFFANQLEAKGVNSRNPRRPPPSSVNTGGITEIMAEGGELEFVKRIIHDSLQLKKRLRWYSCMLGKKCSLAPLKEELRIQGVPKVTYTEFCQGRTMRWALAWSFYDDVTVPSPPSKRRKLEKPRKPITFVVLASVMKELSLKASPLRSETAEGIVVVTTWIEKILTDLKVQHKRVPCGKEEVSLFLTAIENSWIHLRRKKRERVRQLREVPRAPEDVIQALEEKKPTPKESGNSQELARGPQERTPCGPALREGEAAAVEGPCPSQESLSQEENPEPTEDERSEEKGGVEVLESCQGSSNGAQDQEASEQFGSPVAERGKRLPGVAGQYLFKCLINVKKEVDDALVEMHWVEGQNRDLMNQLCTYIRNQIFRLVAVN
# Procedure: as §1, §2
# METTL3/METTL14 [1] = biological target: T2, METTL3/METTL14 (Homo sapiens, UniProt Q86U44); assay: Thermal shift assay; type: binding; details: vs DMSO control
# T2 construct: made in house; host or cells: Sf9 insect cells (baculovirus)
# T2 sequence (Q86U44 whole entry): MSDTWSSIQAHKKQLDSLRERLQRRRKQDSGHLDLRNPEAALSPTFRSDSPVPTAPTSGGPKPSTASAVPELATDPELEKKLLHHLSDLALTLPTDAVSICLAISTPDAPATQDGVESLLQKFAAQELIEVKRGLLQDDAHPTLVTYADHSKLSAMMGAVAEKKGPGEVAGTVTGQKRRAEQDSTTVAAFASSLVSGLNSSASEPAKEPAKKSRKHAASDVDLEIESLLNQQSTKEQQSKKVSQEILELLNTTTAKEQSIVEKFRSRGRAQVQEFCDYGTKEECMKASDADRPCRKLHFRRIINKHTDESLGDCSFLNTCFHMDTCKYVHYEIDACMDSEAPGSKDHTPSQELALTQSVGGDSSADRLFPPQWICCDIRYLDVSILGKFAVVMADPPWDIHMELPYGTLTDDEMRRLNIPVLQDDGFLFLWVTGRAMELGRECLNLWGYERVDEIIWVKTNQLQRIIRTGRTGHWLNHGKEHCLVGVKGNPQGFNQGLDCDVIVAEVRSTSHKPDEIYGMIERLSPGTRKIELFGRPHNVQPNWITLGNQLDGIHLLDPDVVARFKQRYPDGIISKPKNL
# T2 sequence (Q9HCE5 whole entry partner): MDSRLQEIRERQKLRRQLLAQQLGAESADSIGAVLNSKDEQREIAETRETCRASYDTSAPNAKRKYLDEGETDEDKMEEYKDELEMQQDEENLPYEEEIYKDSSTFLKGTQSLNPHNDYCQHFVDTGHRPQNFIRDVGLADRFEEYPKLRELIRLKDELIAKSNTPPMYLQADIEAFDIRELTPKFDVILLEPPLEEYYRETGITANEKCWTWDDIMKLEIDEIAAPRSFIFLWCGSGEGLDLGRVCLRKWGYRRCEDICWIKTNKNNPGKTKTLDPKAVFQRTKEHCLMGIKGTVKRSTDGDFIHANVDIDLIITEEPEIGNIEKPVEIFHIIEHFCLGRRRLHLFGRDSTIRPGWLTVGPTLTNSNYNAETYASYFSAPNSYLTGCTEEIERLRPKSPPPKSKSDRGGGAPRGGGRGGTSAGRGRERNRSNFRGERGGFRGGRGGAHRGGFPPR
# Procedure: as §1, §2
# METTL3/METTL14 [2] = biological target: T2, METTL3/METTL14; assay: METTL3 enzymatic inhibition assay by homogeneous time-resolved fluorescence (HTRF); type: biochemical; details: for IC50: HTRF assay, racemic mixture, read-out: IC50
# Procedure: Compound potencies were evaluated by using a previously reported METTL3 inhibition assay. […] Tested compounds that inhibit METTL3 decrease the m^6A level and thus reduce the HTRF signal. The biochemical assay was performed, as described previously.[19] The IC50 values derived from fitting a dose–response curve to the data using nonlinear regression. The IC50 values are given as an average of at least two independent measurements for each compound in the text.
# MOLM-13 cells = assay: Antiproliferative activity / cytotoxicity (GI50), CellTiter-Glo; type: cell-based
# Procedure: We then decided to evaluate the cellular potency of inhibitor 54. The antiproliferative activity on MOLM-13, which is an acute myeloid leukemia cell line, was measured using a previously published protocol with a 3-day incubation time.[10]
# MOLM-13 cells were cultured in RPMI 1640 medium containing 10% Gibco FBS and 1% penicillin/streptomycin (complete medium) in 5% CO2 at 37 °C in a humidified incubator, with maintained cell densities at 0.6–2 × 10^6 cells/mL.
# Cells were seeded in white clear-bottom 96-well plates at a density of 2 × 10^4 cells/well in 50 μL of the complete RPMI medium and treated with 50 μL increasing concentrations of compound 54 dissolved in DMSO (final concentration of compounds 1.25–160 μM) or DMSO only (0.5% (v/v)) as a negative control and incubated for 72 h at 37 °C with 5% CO2. Cell viability was determined using a CellTiter-Glo luminescent cell viability assay (Promega G7570) based on the detection of ATP according to the manufacturer’s instructions. […] The luminescence was recorded using a Tecan Infinite […] M1000 microplate reader from the top. The background luminescence value was obtained from wells containing the CellTiter-Glo reagent and medium without cells. Cell viability curves were plotted in GraphPad Prism 9 and fitted with nonlinear regression, from which GI50 values were determined.
# [3] = tested on: m^6A/A level in MOLM-13 cells; set-up: method as in PMID 34237194; details: read-out: IC50 for m^6A/A reduction; cited from earlier work
# [4] = SAH at 2000 μM, vs DMSO control
# METTL1, sequence (Q9UBP6 whole entry, species assumed): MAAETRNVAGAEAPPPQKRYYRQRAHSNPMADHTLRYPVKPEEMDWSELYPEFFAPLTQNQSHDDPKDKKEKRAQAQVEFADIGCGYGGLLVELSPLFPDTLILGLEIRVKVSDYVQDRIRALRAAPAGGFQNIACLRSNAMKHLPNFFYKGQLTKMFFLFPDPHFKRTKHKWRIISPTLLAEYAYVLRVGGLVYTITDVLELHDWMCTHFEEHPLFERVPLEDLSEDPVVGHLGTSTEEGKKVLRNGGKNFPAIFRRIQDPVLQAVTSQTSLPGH
compound,measurement,setting,value
"Nc1ncnc2c1ncn2[C@@H]1O[C@H](CSCC[C@H](N)C(=O)O)[C@@H](O)[C@H]1O [SAH, S-adenosyl-L-homocysteine, reference compound]",ΔTm,METTL1; [4],8.75 °C
same,ΔTm,METTL16; [4],2.5 °C
same,ΔTm,METTL3/METTL14 [1]; SAH at 2000 μM,4.05 °C
"CC(C)C1N(Cc2ccc3c(NCC4(O)CCCN(c5cc(NCc6ccccc6)ncn5)C4)cccc3c2)CC12CCC2 (stereo not drawn) [compound 54, 1-(6-(benzylamino)pyrimidin-4-yl)-3-(((6-((1-isopropyl-2-azaspiro[3.3]heptan-2-yl)methyl)naphthalen-1-yl)amino)methyl)piperidin-3-ol]",IC50,METTL3/METTL14 [2],54 nM
same,fold improvement in affinity (IC50) vs compound 46,METTL3/METTL14 [2]; matched pair 46:54,6.7 fold
same,GI50,"MOLM-13 cells; Homo sapiens, MOLM-13, 3-day (72 h) incubation, average of two biological replicates",6000 nM
same,factor by which cellular GI50 is higher than biochemical IC50,MOLM-13 cells; MOLM-13 GI50 vs HTRF IC50,about 100
same,ΔTm (shift of melting curve),METTL1; compound up to 200 μM,No shift
same,ΔTm (shift of melting curve),METTL16; compound up to 200 μM,No shift
same,ΔTm at 200 µM,"METTL3/METTL14 [1]; compound at 200 μM, read-out: ΔTm (shift of melting curve)",1.8 °C
CC1(C)CCN(Cc2ccc(C(=O)NC[C@]3(O)CCCN(c4cc(NCc5ccccc5)ncn4)C3)c(O)c2)CC1 [UZH1a],IC50,[3],4600 nM
CC1(C)CCN(Cc2ccc(C(=O)NCC3(O)CCCN(c4cc(NCc5cccc(S(N)(=O)=O)c5)ncn4)C3)c(O)c2)CC1 (stereo not drawn) [compound 52],IC50,METTL3/METTL14 [2],300 nM
